Data from patent US12077503B2, “Substituted cyclic amides and their use as herbicides” (FMC CORPORATION, priority 2015, dated 2024).

Experiments:
Format in all cases: in vivo
[1] = system: barnyardgrass (Echinochloa crus-galli); experiment: Test G Pre-Emergence Protocol; settings: Echinochloa crus-galli, pre-emergence, 312 h, evaluated after 13 days; for pest or weed control at 15.625 g/ha: 15.625 g ai/ha; for pest or weed control at 15.625 g/ha / pest or weed control at 250 g/ha: read-out: Barnyardgrass damage rating (100=total damage to plant; 0=no damage to plant); for pest or weed control at 62.5 g/ha: 62.5 g ai/ha, 100=total damage to plant, 0=no damage to plant, read-out: Barnyardgrass damage rating; for pest or weed control at 250 g/ha: 250 g ai/ha
Method in brief: (§1)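 Visual injury (0–100) at day 13 after a single pre-emergence spray. Rates: 15.625, 62.5, 250 g/ha in acetone–water 50:50 with 0.5% Tween 20. Growth conditions: 24/16° C, 14 h light, 65% humidity.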

corn (Zea mays) [2] = experiment: Test G Pre-Emergence Protocol; settings: Zea mays, pre-emergence, 312 h, evaluated after 13 days; for plant injury at 15.625 g/ha: 15.625 g ai/ha; for plant injury at 15.625 g/ha / plant injury at 250 g/ha: read-out: Corn damage rating (100=total damage to plant; 0=no damage to plant); for plant injury at 62.5 g/ha: 62.5 g ai/ha, 100=total damage to plant, 0=no damage to plant, read-out: Corn damage rating; for plant injury at 250 g/ha: 250 g ai/ha
Method in brief: as §1

[3] = system: giant foxtail (Setaria faberi); experiment: Test G Pre-Emergence Protocol; settings: Setaria faberi, pre-emergence, 312 h, evaluated after 13 days; for pest or weed control at 15.625 g/ha: 15.625 g ai/ha; for pest or weed control at 15.625 g/ha / pest or weed control at 250 g/ha: read-out: Foxtail, Giant damage rating (100=total damage to plant; 0=no damage to plant); for pest or weed control at 62.5 g/ha: 62.5 g ai/ha, 100=total damage to plant, 0=no damage to plant, read-out: Foxtail, Giant damage rating; for pest or weed control at 250 g/ha: 250 g ai/ha
Method in brief: as §1

[4] = system: ivy-leaved morning glory (Ipomoea hederacea); experiment: Test G Pre-Emergence Protocol; settings: Ipomoea, pre-emergence, 312 h, evaluated after 13 days; for pest or weed control at 15.625 g/ha: 15.625 g ai/ha; for pest or weed control at 15.625 g/ha / pest or weed control at 250 g/ha: read-out: Morningglory, Ivy-leaved damage rating (100=total damage to plant; 0=no damage to plant); for pest or weed control at 62.5 g/ha: 62.5 g ai/ha, 100=total damage to plant, 0=no damage to plant, read-out: Morningglory, Ivy-leaved damage rating; for pest or weed control at 250 g/ha: 250 g ai/ha
Method in brief: as §1

[5] = system: redroot pigweed (Amaranthus retroflexus); experiment: Test G Pre-Emergence Protocol; settings: Amaranthus retroflexus, pre-emergence, 312 h, evaluated after 13 days; for pest or weed control at 15.625 g/ha: 15.625 g ai/ha; for pest or weed control at 15.625 g/ha / pest or weed control at 250 g/ha: read-out: Pigweed, Redroot damage rating (100=total damage to plant; 0=no damage to plant); for pest or weed control at 62.5 g/ha: 62.5 g ai/ha, 100=total damage to plant, 0=no damage to plant, read-out: Pigweed, Redroot damage rating; for pest or weed control at 250 g/ha: 250 g ai/ha
Method in brief: as §1

[6] = system: velvetleaf (Abutilon theophrasti); experiment: Test G Pre-Emergence Protocol; settings: Abutilon theophrasti, pre-emergence, 312 h, evaluated after 13 days; for pest or weed control at 15.625 g/ha: 15.625 g ai/ha; for pest or weed control at 15.625 g/ha / pest or weed control at 250 g/ha: read-out: Velvetleaf damage rating (100=total damage to plant; 0=no damage to plant); for pest or weed control at 62.5 g/ha: 62.5 g ai/ha, 100=total damage to plant, 0=no damage to plant, read-out: Velvetleaf damage rating; for pest or weed control at 250 g/ha: 250 g ai/ha
Method in brief: as §1

[7] = system: barnyardgrass (Echinochloa crus-galli); experiment: Test G Post-Emergence Protocol; settings: Echinochloa crus-galli, post-emergence, 312 h, read-out: Barnyardgrass damage rating; for pest or weed control at 15.625 g/ha: 15.625 g ai/ha, evaluated after 13 days (100=total damage to plant; 0=no damage to plant); for pest or weed control at 62.5 g/ha: 62.5 g ai/ha; for pest or weed control at 62.5 g/ha / pest or weed control at 250 g/ha: evaluated after 13 days, 100=total damage to plant, 0=no damage to plant; for pest or weed control at 250 g/ha: 250 g ai/ha
Method in brief: (§2)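 Eight days post-sowing, plants received a spray of test compound (acetone/water 50:50, 0.5% Tween 20) at 15.625, 62.5 or 250 g/ha. Glasshouse regime thereafter: 24/16 °C, 14 h light, 65% humidity. Assessment after 13 days on a 0–100 damage scale.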

corn (Zea mays) [8] = experiment: Test G Post-Emergence Protocol; settings: Zea mays, post-emergence, 312 h, read-out: Corn damage rating; for plant injury at 15.625 g/ha: 15.625 g ai/ha, evaluated after 13 days (100=total damage to plant; 0=no damage to plant); for plant injury at 62.5 g/ha: 62.5 g ai/ha; for plant injury at 62.5 g/ha / plant injury at 250 g/ha: evaluated after 13 days, 100=total damage to plant, 0=no damage to plant; for plant injury at 250 g/ha: 250 g ai/ha
Method in brief: as §2

[9] = system: giant foxtail (Setaria faberi); experiment: Test G Post-Emergence Protocol; settings: Setaria faberi, post-emergence, 312 h, read-out: Foxtail, Giant damage rating; for pest or weed control at 15.625 g/ha: 15.625 g ai/ha, evaluated after 13 days (100=total damage to plant; 0=no damage to plant); for pest or weed control at 62.5 g/ha: 62.5 g ai/ha; for pest or weed control at 62.5 g/ha / pest or weed control at 250 g/ha: evaluated after 13 days, 100=total damage to plant, 0=no damage to plant; for pest or weed control at 250 g/ha: 250 g ai/ha
Method in brief: as §2

[10] = system: ivy-leaved morning glory (Ipomoea hederacea); experiment: Test G Post-Emergence Protocol; settings: Ipomoea, post-emergence, 312 h, read-out: Morningglory, Ivy-leaved damage rating; for pest or weed control at 15.625 g/ha: 15.625 g ai/ha, evaluated after 13 days (100=total damage to plant; 0=no damage to plant); for pest or weed control at 62.5 g/ha: 62.5 g ai/ha; for pest or weed control at 62.5 g/ha / pest or weed control at 250 g/ha: evaluated after 13 days, 100=total damage to plant, 0=no damage to plant; for pest or weed control at 250 g/ha: 250 g ai/ha
Method in brief: as §2

[11] = system: redroot pigweed (Amaranthus retroflexus); experiment: Test G Post-Emergence Protocol; settings: Amaranthus retroflexus, post-emergence, 312 h, read-out: Pigweed, Redroot damage rating; for pest or weed control at 15.625 g/ha: 15.625 g ai/ha, evaluated after 13 days (100=total damage to plant; 0=no damage to plant); for pest or weed control at 62.5 g/ha: 62.5 g ai/ha; for pest or weed control at 62.5 g/ha / pest or weed control at 250 g/ha: evaluated after 13 days, 100=total damage to plant, 0=no damage to plant; for pest or weed control at 250 g/ha: 250 g ai/ha
Method in brief: as §2

[12] = system: velvetleaf (Abutilon theophrasti); experiment: Test G Post-Emergence Protocol; settings: Abutilon theophrasti, post-emergence, 312 h, read-out: Velvetleaf damage rating; for pest or weed control at 15.625 g/ha: 15.625 g ai/ha, evaluated after 13 days (100=total damage to plant; 0=no damage to plant); for pest or weed control at 62.5 g/ha: 62.5 g ai/ha; for pest or weed control at 62.5 g/ha / pest or weed control at 250 g/ha: evaluated after 13 days, 100=total damage to plant, 0=no damage to plant; for pest or weed control at 250 g/ha: 250 g ai/ha
Method in brief: as §2

SMILES	pest or weed control at 15.625 g/ha [1] [%]	pest or weed control at 62.5 g/ha [1] [%]	pest or weed control at 250 g/ha [1] [%]	plant injury at 15.625 g/ha (corn (Zea mays) [2]) [%]	plant injury at 62.5 g/ha (corn (Zea mays) [2]) [%]	plant injury at 250 g/ha (corn (Zea mays) [2]) [%]	pest or weed control at 15.625 g/ha [3] [%]	pest or weed control at 62.5 g/ha [3] [%]	pest or weed control at 250 g/ha [3] [%]	pest or weed control at 15.625 g/ha [4] [%]	pest or weed control at 62.5 g/ha [4] [%]	pest or weed control at 250 g/ha [4] [%]	pest or weed control at 15.625 g/ha [5] [%]	pest or weed control at 62.5 g/ha [5] [%]	pest or weed control at 250 g/ha [5] [%]	pest or weed control at 15.625 g/ha [6] [%]	pest or weed control at 62.5 g/ha [6] [%]	pest or weed control at 250 g/ha [6] [%]	pest or weed control at 15.625 g/ha [7] [%]	pest or weed control at 62.5 g/ha [7] [%]	further results
COC(=O)c1cc([C@H]2CN(C)C(=O)[C@@H]2C(=O)Nc2cccc(F)c2F)ccc1C (racemic) [Compound 1683]	60	70	80	30	50	80	70	80	90	0	10	60	20	20	20	0	10	30	70	70	pest or weed control at 250 g/ha [7]: 80%; plant injury at 15.625 g/ha (corn (Zea mays) [8]): 20%; plant injury at 62.5 g/ha (corn (Zea mays) [8]): 40%; plant injury at 250 g/ha (corn (Zea mays) [8]): 80%; pest or weed control at 15.625 g/ha [9]: 70%; pest or weed control at 62.5 g/ha [9]: 80%; pest or weed control at 250 g/ha [9]: 80%; pest or weed control at 15.625 g/ha [10]: 30%; pest or weed control at 62.5 g/ha [10]: 30%; pest or weed control at 250 g/ha [10]: 50%; pest or weed control at 15.625 g/ha [11]: 30%; pest or weed control at 62.5 g/ha [11]: 10%; pest or weed control at 250 g/ha [11]: 40%; pest or weed control at 15.625 g/ha [12]: 0%; pest or weed control at 62.5 g/ha [12]: 20%; pest or weed control at 250 g/ha [12]: 50%
CN1C[C@H](c2ccc(C(F)F)cc2)[C@@H](C(=O)Nc2cccc(F)c2F)C1=O (racemic) [Compound 1728]	70	90	90	30	80	80	80	90	90	0	30	80	30	80	80	40	60	80	70	80	pest or weed control at 250 g/ha [7]: 80%; plant injury at 15.625 g/ha (corn (Zea mays) [8]): 60%; plant injury at 62.5 g/ha (corn (Zea mays) [8]): 60%; plant injury at 250 g/ha (corn (Zea mays) [8]): 80%; pest or weed control at 15.625 g/ha [9]: 80%; pest or weed control at 62.5 g/ha [9]: 80%; pest or weed control at 250 g/ha [9]: 80%; pest or weed control at 15.625 g/ha [10]: 0%; pest or weed control at 62.5 g/ha [10]: 20%; pest or weed control at 250 g/ha [10]: 70%; pest or weed control at 15.625 g/ha [11]: 20%; pest or weed control at 62.5 g/ha [11]: 0%; pest or weed control at 250 g/ha [11]: 80%; pest or weed control at 15.625 g/ha [12]: 30%; pest or weed control at 62.5 g/ha [12]: 30%; pest or weed control at 250 g/ha [12]: 60%
CN1C[C@H](c2ccc(C(F)(F)F)cc2)[C@@H](C(=O)Nc2cnccc2[N+](=O)[O-])C1=O (racemic) [Compound 1729]	0	0	0	0	0	0	0	0	0	0	0	0	0	0	0	0	0	0	0	0	pest or weed control at 250 g/ha [7]: 0%; plant injury at 15.625 g/ha (corn (Zea mays) [8]): 0%; plant injury at 62.5 g/ha (corn (Zea mays) [8]): 0%; plant injury at 250 g/ha (corn (Zea mays) [8]): 0%; pest or weed control at 15.625 g/ha [9]: 0%; pest or weed control at 62.5 g/ha [9]: 0%; pest or weed control at 250 g/ha [9]: 0%; pest or weed control at 15.625 g/ha [10]: 0%; pest or weed control at 62.5 g/ha [10]: 0%; pest or weed control at 250 g/ha [10]: 0%; pest or weed control at 15.625 g/ha [11]: 0%; pest or weed control at 62.5 g/ha [11]: 0%; pest or weed control at 250 g/ha [11]: 0%; pest or weed control at 15.625 g/ha [12]: 0%; pest or weed control at 62.5 g/ha [12]: 0%; pest or weed control at 250 g/ha [12]: 0%
